Tests used:
[1] = Passive transdermal delivery of PPS from hydrogel gel patch after microprojection array pretreatment, determined by urinary excretion of tritium; type: in vivo, hairless guinea pig; details: passive diffusion
Description: In this experiment, PPS was delivered by passive diffusion through skin pathways created by a pretreatment device having a microprojection array. The microprojection array comprised a stainless steel sheet having a thickness of 0.025 mm, trapezoidally shaped microprojections bent at an angle of approximately 90° to the plane of the sheet and a microprojection density of 241 microprojections/cm^2. […] The gel patch comprised a foam, double adhesive ring (diameter 3.8 cm, thickness 0.16 cm) having 0.35 mL of a hydrogel formulation and a skin contact area of 2 cm^2. The hydrogel formulation included tritiated PPS at 50 mg/mL in a 2% hydroxyethyl cellulose ([…], HERCULES Int. Lim. Netherlands, determined molecular weight: Mw 1890000, Mn 1050000) hydrogel. […] The amount of the biologically active agent (or drug) that penetrated the skin during selected time intervals was determined by measuring urinary excretion of tritium (previous studies had shown that in HGP's 32% of 3H-PPS injected intravenously is excreted in urine). […] After 24 h delivery, more than 6 mg of PPS had been administered systemically.

[2] = injected intravenously, HGP; cited from earlier work

## pentosan polysulfate [PPS]
[1]; after 24 h delivery, tritiated PPS 50 mg/mL in 2% HEC hydrogel, 0.35 mL, 2 cm^2
  amount of PPS administered systemically: more than 6 mg
[1]; FIG. 19
  flux of PPS through the skin: time dependant flux
[2]
  fraction of 3H-PPS excreted in urine: 32%

Reference: patent US20050106226A1, “Pretreatment method and system for enhancing transdermal drug delivery” (priority 2003, published 2005)
